Source: patent publication US4550186A, “Binuclear copper (II) carboxylates formed from amine-carboxyboranes” (Duke University, priority 1983, dated 1985)

What was measured:
[1] = tested on: Mitochondrial Citrate Exchange; experiment: In vitro liver enzyme study: mitochondrial citrate exchange; format: biochemical, mouse; details: in vitro CF1 liver, 10 min
Protocol: (§1) In vitro enzymatic studies were determined using 10% homogenates of CF1 male mouse liver with 50-200 μM of test drugs. In vivo enzymatic studies were determined using 10% homogenates of liver from CF1 male mice obtained after administering the agents for 16 days at a dose ranging from 2.5-20 mg/kg/day intraperitoneally. The liver homogenates for both in vitro and in vivo studies were prepared in 0.25M sucrose and 0.001M (ethylenedinitrilo)tetraacetic acid. Acetyl coenzyme A synthetase and adenosine triphosphate dependent citrate lyase activities were determined spectrophotometrically at 540 nm as the hydroxylamate of acetyl coenzyme A formed after 30 min at 37° C. Mitochondrial citrate exchange was determined by the procedure of Robinson et al [Eur. J. Biochem., 216, 63 (1970)] using ^14 C-sodium bicarbonate (41 mCi/mmol) incorporated into mitochondrial ^14 C-citrate after isolating rat mitochondria (9000 g×10 min) from the homogenates. The exchanges of the ^14 C-citrate were determined after incubating the mitochondrial fraction which was loaded with labeled citrate and test drugs for 10 min. Then the radioactivity was measured in the mitochondrial and supernantant fractions in scintillation fluid and expressed as a percentage. Cholesterol side chain oxidation was determined by the method of Kritchevsky and Tepper [Artherosclerosis, 18, 93 (1973)] using (26-^14 C) cholesterol (50 mCi/mmol) and mitochondria isolated from rat liver homogenates. […] Fatty acid synthetase activity was determined by the method of Brady et al [J. Biol. Chem., 235, 3093 (1960)] using [2-^14 C] malonyl-coenzyme A (37.5 mCi/mmol) which was incorporated into newly synthesized fatty acids that were extracted with ether and counted. Acyl transferase activity was determined with glycerol-3phosphate [L-2-^3 H(N)] […] HCl and counted. Phosphatidate phosphohydrolase activity was measured as the inorganic phosphate released after 30 min from phosphatidic acid by the method of Mavis et al [J. Lipid Res., 19, 467 (1978)]. […]

CF1 male mice = experiment: Mouse liver lipid content; format: in vivo; details: 16 days
Protocol: In CF1 male mice that had been administered test drugs for 16 days, the liver, small intestine and fecal materials (24 hr collection) were removed and a 10% homogenate in 0.25M sucrose+0.001M (ethylenedinitrilo)tetraacetic acid was prepared. An aliquot (2 ml) of the homogenate was extracted by the methods of Floch et al [J. Biol. Chem., 226, 497 (1957)] and Bligh and Dyer [Can. J. Biochem. Physiol., 37, 911 (1957)] and the number of mg of lipid weighed. The lipid was taken up in methylene chloride and the cholesterol level triglyceride levels, neutral lipid content and phospholipid content were determined.
Data are expressed in the Table 2-7 as percent of control ± the standard deviation. The probable significant level (P) between each test group and the control group was determined by the Student's "t" test.

[2] = tested on: Phosphatidate Phosphohydrolase; experiment: In vitro liver enzyme study: phosphatidate phosphohydrolase; format: biochemical, mouse; details: in vitro CF1 liver, 30 min
Protocol: as §1

[3] = biological target: T1, messenger ribonucleic acid polymerase (Mus musculus, UniProt P08775+Q8CFI7); experiment: In vitro messenger ribonucleic acid polymerase activity; format: biochemical; details: 0.25 to 1.0 mM
T1 construct: enzymes isolated from nuclei; endogenous in cells; host or cells: Ehrlich ascites tumor cell nuclei, ammonium sulfate fraction
Protocol: CF1 male mice (~30 g) were implanted with 2×10^6 Ehrlich ascites tumor cells, intraperitoneally on Day 0. Compound I was suspended by homogenation in 0.05% polysorbate.80-water and administered intraperitoneally at 10 and 20 mg/kg for 9 days to determine its effectiveness for inhibition of tumor growth. Mice were sacrificed on Day 10, and the ascites fluid was collected from the peritoneal cavity. The volume and ascrit (packed cell volume) were determined for each animal and the percent inhibition of tumor growth was calculated. For the metabolic studies, mice were treated on Days 8 and 9 with 10 mg/kg of Compound I, intraperitoneally. The animal was sacrificed on Day 10 and the ascites fluid harvested. The in vitro metabolic studies were performed at […] final concentration of Compound I.
In vitro and in vivo nuclear deoxyribonucleic acid polymerase activity was determined on isolated Ehrlich ascites cell nuclei. The incubation was that described by Sawada et al [Can. Res., 34, 3341 (1974)] except that [methyl-^3 H] deoxythymidine triphosphate (82.4 Ci/mmol) was used. The acid insoluble nucleic acid was collected on GF/F filters and counted. Nuclear ribonucleic acid polymerase activities were determined on enzymes isolated from nuclei. […] The acid insoluble ribonucleic acid was collected on nitrocellulose filters and counted.

## {Cu[(CH3)3 N.BH2 CO2 ]2.(CH3)3 N.BH2 COOH} [Compound I]
[1]; 50 μM
  Mitochondrial Citrate Exchange: 105 ± 6 Percent Control
[1]; 100 μM
  Mitochondrial Citrate Exchange: 104 ± 6 Percent Control
[1]; 200 μM
  Mitochondrial Citrate Exchange: 103 ± 7 Percent Control
CF1 male mice; 2.5 mg/kg
  Cholesterol: 71 ± 6% of control
  Mg of Lipid: 82 ± 5% of control
  Neutral Lipids: 79 ± 5% of control
  Phospholipids: 67 ± 6% of control
  Protein: 105 ± 6% of control
  Triglycerides: 40 ± 3% of control
CF1 male mice; 5.0 mg/kg
  Cholesterol: 74 ± 7% of control
  Mg of Lipid: 85 ± 6% of control
  Neutral Lipids: 86 ± 5% of control
  Phospholipids: 92 ± 7% of control
  Protein: 92 ± 5% of control
  Triglycerides: 38 ± 4% of control
CF1 male mice; 10.0 mg/kg
  Cholesterol: 77 ± 7% of control
  Mg of Lipid: 95 ± 6% of control
  Neutral Lipids: 87 ± 4% of control
  Phospholipids: 152 ± 8% of control
  Protein: 101 ± 8% of control
  Triglycerides: 36 ± 5% of control
[2]; 50 μM
  Phosphatidate Phosphohydrolase: 77 ± 5 Percent Control
[2]; 100 μM
  Phosphatidate Phosphohydrolase: 63 ± 6 Percent Control
[2]; 200 μM
  Phosphatidate Phosphohydrolase: 35 ± 3 Percent Control
[3]
  messenger ribonucleic acid polymerase inhibition: not inhibited
